Measurements: US20180312237A1, “BALLAST WATER TREATMENT DEVICE AND BALLAST WATER TREATMENT METHOD” (Kuraray Co., Ltd., priority 2015, published 2018)

Key:
heterotrophic bacteria = assay: Number of heterotrophic bacteria (seawater medium) in sampled ballast water; format: cell-based
Procedure: In the present example, using a ballast water treatment device 100 shown in FIG. 8, 100 m^3 of seawater was supplied to a ballast tank 60 with a capacity of about 200 m^3. Specifically, first, a ballast pump 10 was activated to take in seawater from a pipe port 2A of a main pipe 2 by pump pressure. Microbes or particles in the seawater were removed by allowing the seawater to pass through a filter 20.
(§1) Next, by pouring a solution of TRO 2000 mg/L with dissolved sodium dichloroisocyanurate from a sterilizing component-introducing unit 40 to the seawater after being filtered by the above filter, the seawater was made to include a chlorine component. […]
(§2) With respect to each of the above sampled three kinds of ballast water (the ballast water immediately after filling, the ballast water after a lapse of 10 days after filling, and the ballast water in the ballast tank after the ballast water circulation), a TRO concentration and the number of heterotrophic bacteria (seawater medium) were measured. Additionally, as a comparison, the number of heterotrophic bacteria of the seawater was measured. As the TRO concentration, a value measured by a DPD colorimeter II (product of Hach Company) was adopted.

[1] = TRO concentration of sampled ballast water, DPD colorimeter II; format: physicochemical
Procedure: The ballast water treatment device 1 further includes a concentration measurement unit 41. […] The concentration measurement unit 41 is a sensor for measuring a chlorine concentration of ballast water in the ballast tank 60. Here, a “chlorine concentration (mg/L)” is measured as a total residual oxidant (TRO) concentration of seawater. The TRO concentration can be measured by a measuring instrument using a DPD reagent or the like. […] While in the present embodiment, the concentration measurement unit 41 is attached to the ballast tank 60, the position of the concentration measurement unit 41 is not limited thereto but can be any position that enables a concentration of a sterilizing component of the ballast water in the ballast tank 60 to be measured. For example, the concentration measurement unit 41 may be attached to the circulation pipe 80, or the concentration measurement unit 41 may be attached to the detour pipe 90, or the concentration measurement unit 41 may be attached to the main pipe 2 between the first connection part 2C and the second connection part 2D.
as §1, with “component. By stirring the seawater including a chlorine component by a mixer 50, a chlorine component in the seawater was made uniform to become ballast water, and the ballast tank 60 was filled with the ballast water.” for “component.”
as §2

[2] = ballast water after a lapse of 10 days after filling

O=c1[n-]c(=O)n(Cl)c(=O)n1Cl.[Na+] [sodium dichloroisocyanurate]
The number of bacteria (heterotrophic bacteria; [2]): 4.6 × 10^5 cfu/cc | The number of bacteria (heterotrophic bacteria; ballast water immediately after filling, filtered seawater with poured TRO 2000 mg/L solution): 7.4 × 10^1 cfu/cc | TRO concentration [1, 2]: 0.2 mg/L | TRO concentration ([1]; ballast water after circulation with additional sterilizing component): 3.2 mg/L | TRO concentration ([1]; ballast water immediately after filling): 5.0 mg/L
